# Measurements taken from article PMC5799093, “Proceedings of Réanimation 2018, the French Intensive Care Society International Congress” (Annals of Intensive Care, 2018).
# What was measured:
# [1] = Heparin-induced thrombocytopenia in ICU (anti-PF4 antibody test); format: in vivo; details: patients hospitalized in ICU
# Experimental: Patients and methods: This was a retrospective, monocentric, descriptive and evaluative study conducted in our intensive care unit (ICU) over a period of 4 years 6 months. An anti-PF4 antibody test was performed in patients who developed thrombocytopenia or a 30% drop in their initial platelet kinetics and the clinical picture.
# [2] = Fatal carbon monoxide intoxication, forensic series (P-181); details: 29 fatal cases, toxicological analysis at autopsy
# [3] = CVVHF filter lifespan, LMWH versus regional citrate anticoagulation (P-97); parameters: species or system human; details: in vivo
# From the text: Patients and methods: A monocentric retrospective study was led from January to October 2016. All the CVVHF sessions during this period were included. Prismaflex© monitors (Hospal) were used. Practioners were free to choose between citrate or LMWH defining 2 groups. We aimed a post filter ionized calcemia between 0.25 to 0.5 mmol/L in citrate group + and a post filter anti Xa activity between 0.2 to 0.5 UI/mL in LMWH.
# anti-Xa activity = assay: Population pharmacokinetics of enoxaparin (anti-Xa activity) in pediatric liver transplantation (P-170); format: in vivo, human (children)
# Experimental: Patients and methods: Clinical, biological and kinetic data were retrospectively collected in a single Pediatric Intensive Care Unit center from January 2013 to July 2015. We described an enoxaparin PK model in 22 children the first week following the LT. Anti-Xa activity time-courses were analyzed using a non linear mixed effects approach with Monolix version 2016R.
# [4] = comparison value; cited from earlier work
# [5] = Acute amitriptylin and clomipramine poisonings in the ICU, clinical features and pharmacokinetics
# [6] = New-generation anticonvulsive drug poisoning in ICU with pharmacokinetics (P-146); format: in vivo, human; details: membrane-stabilizing effects resulting in acute cardiac failure
# From the text: Pharmacokinetics modeling and parameters were obtained using WinNonlin v.5.1 software.
# [7] = Eight of 49 patients
# GABA-A receptors = assay: PET imaging with 11C-flumazenil, interaction of tramadol with GABA-A receptors; format: binding; details: 11C-flumazenil fixation in the rat brain
# eclampsia = assay: Eclampsia survey, recurrence under magnesium sulfate prevention; format: in vivo, patients; details: 83 women
# From the text: Patients and methods: We conducted a retrospective survey in a third level Tunisian university teaching hospital from January 2004 to December 2016. We included all patients with the diagnosis of eclampsia.
# [8] = Major arrhythmia recurrence after resuscitated ischemic VF/VT, PROCAT registry (P-86); format: in vivo, human; details: multivariate analysis, 256 patients, 104 treated; p = 0.870
# From the text: Patients and methods: The PROCAT registry captures all data from patients admitted in a tertiary hospital center after a resuscitated cardiac arrest (CA). We selected patients with an initial VF VT caused by an acute coronary syndrome (ACS) and who were successfully treated with early percutaneous coronary intervention (PCI) on admission. The primary endpoint was the recurrence of major arrhythmia between ICU admission and ICU discharge. All arrhythmias resulting in CA recurrence and or severe arterial hypotension requiring infusion of vasopressors were classified as major arrhythmias. Multivariate logistic regression identified factors associated with the occurrence of major arrhythmias.
# [9] = 2 g day intermittent infusion, trough concentrations, theoretical target MIC 2 mg/L, 21 patients, 63 samples
# [10] = Piperacillin-tazobactam 16 g day continuous infusion, PK PD target attainment; format: in vivo, critically ill patients; details: MIC 16 mg L^−1 for piperacillin, n = 60
# [11] = system: carbapenemase-producing Enterobacteriaceae; assay: Antibiotic susceptibility of Enterobacteriaceae with decreased susceptibility to carbapenems; format: cell-based; details: for resistant rate: CA-SFM 2015
# [12] = system: microorganisms of post-operative pneumonia; assay: Susceptibility of microorganisms cultured in severe post-operative pneumonia (P-213); format: cell-based; details: 66 patients with significant culture
# Experimental: Patients and methods: All patients with severe POP occurring within 30 days after lung resection between January 2013 and December 2015 were included. We collected data on clinical presentation, results of microbiological investigations, antibiotic regimen and outcomes. The quality of antibiotic use was assessed using indicators previously validated in the literature.
# [13] = Beta-lactam plasma concentrations in children with severe sepsis or septic shock (HPLC); details: current standard dosing
# Pseudomonas aeruginosa [14] = assay: Disk diffusion susceptibility of P. aeruginosa isolated from burned patients (P-48); format: cell-based; details: for strains resistant: 485 strains from burned patients 2012-2015, disk diffusion, FSM breakpoints
# [15] = system: Extended spectrum betalactamase producing Enterobacteriaceae; assay: Antibiotic resistance of ESBL producing Enterobacteriaceae (P-147); format: cell-based; details: isolates 2015 and 2016
# Acinetobacter baumanni = assay: Antibiotic resistance of Acinetobacter baumanni (P-147); format: cell-based; details: imipenem resistant isolates
# P. aeruginosa = assay: Antibiotic resistance of P. aeruginosa (P-147); format: cell-based
# [16] = Caffeine in bronchiolitis related apnea, PICU retrospective study (P-118); details: 49 treated of 54 infants; loading 20 mg kg, 5 mg kg day maintenance
# [17] = Amikacin peak serum concentration (Cmax) after loading dose in patients on ECMO; format: in vivo, adult patients; details: IV loading dose 25 mg kg total body weight; Cmax 30 min after end of infusion; VA- or VV-ECMO; n = 106
# [18] = Amikacin peak serum concentration (Cmax) in ICU patients with septic shock/severe sepsis (P-52); format: in vivo, human
# [19] = critically ill patients, 25 mg kg dose; ref 1 (de Montmollin et al. 2014); cited from earlier work
# Experimental: Introduction: Amikacin infusion requires to target a peak serum concentration (Cmax) 8–10 times the minimal inhibitory concentration, corresponding to a Cmax at 60–80 mg L^−1 for the least susceptible bacteria. […] Membrane sequestration, alteration of the volume of distribution and lack of data in this population make drugs pharmacokinetics (PK) on ECMO challenging. Our study aimed to assess the prevalence of insufficient Amikacin Cmax in critically ill patients on ECMO and to identify re ...
# [20] = parameters: method as in Taccone in 2010; details: dosages of 25 mg kg; ref Taccone in 2010; cited from earlier work
# Pseudomonas = details: January 2010 - June 2014
# Acinetobacter baumannii = details: January 2010 - June 2014
# [21] = human, in vivo
# Experimental: Patients and methods: This study was conducted in burn center in Tunis. Patients with documented and or suspected infections were included. Were excluded pregnant women and patients with renal failure. […] For the 2nd, 3rd, 4th and 5th day, blood samples were taken before the infusion (T0), at the end (T1) and 30 min after the end of it (T2).
# Escherichia-coli = assay: Resistance in nosocomial urinary tract infection: Escherichia-coli (P-219); details: January 2010 - June 2014
# [22] = not given; remark: listed apart in the source
# [23] = system: TREM-1 signalling pathway; details: in vivo; cited from earlier work
# From the text: Introduction: MOTREM is the clinically formulated synthetic peptide (LR12) that is currently being developed for the treatment of sepsis and for the prevention of sequelae after acute myocardial infarction. […] Its pharmacological action occurs via the Triggering Receptor Expressed on Myeloid Cells-1 (TREM-1) signalling pathway.
# clinical = details: male, human, in vivo, iv
# Experimental: (§1) Patients and methods: Twenty-seven healthy male volunteers have been included in this clinical trial. The product was administered by continuous intravenous infusion (CIV). A single ascending dose design with 8 dose levels was used. […] All volunteers were carefully monitored. Before escalation to the next dose level, safety and PK data of the previous dose level were reviewed by a safety review committee.
# [24] = MOTREM phase I first-in-human single ascending dose trial, safety and pharmacokinetics; details: in vivo
# Experimental: as §1
# [25] = system: Pseudomonas aeruginosa (PA); assay: Antibiotic resistance of Pseudomonas aeruginosa before/after antibiotic stewardship (P-214); format: cell-based
# Pseudomonas aeruginosa [26] = assay: Resistance of nosocomial infection isolates: Pseudomonas aeruginosa (P-222); format: cell-based; details: n = 14 isolates, 2016
# From the text: Patients and methods: This was a retrospective study conducted within a 22-bed medical ICU of a Tunisian teaching hospital (301 beds) carried from January 1st to December 31, 2016. We recorded demographic patients’ characteristics which ICU’s stay was complicated with at least one NI. Then we described pathogens and microbiological specificities of NI.
compound,measurement,setting,value
heparin,incidence of HIT,[1],1.71%
[C-]#[O+] [carbon monoxide],mean HbCO level,[2],51.59%
enoxaparin,"serious side effect, especially hemorrhage",[3],No serious side effect
same,typical clearance (CLTYP),"anti-Xa activity; 22 children, first week after LT, one-compartment, scaled to 70 kg, Monolix",1.26 L/h
same,typical volume of distribution (VTYP),"anti-Xa activity; 22 children, scaled to 70 kg",16.9 L
same,children who never attained the target range of anti-Xa activity 0.2 to 0.4 IU mL,"anti-Xa activity; standard 50 IU kg 12 h, 7 children",32%
"CN(C)CCC=C1c2ccccc2CCc2ccccc21 [AMI, Amitriptylin]",elimination half-life in pharmacological conditions,[4],24 h
same,plasma concentration,"[5]; median, AMI [0.4 + 1.4], dose 1.5 g, CLO [0.5 + 1.4], dose 3.0 g",700 ng/mL
same,elimination half-life in overdose,[5]; non-compartmental analysis,43 h
same,"coma depth, AMI vs CLO",[5]; p < 0.0001,significantly deeper coma
same,"seizures, AMI vs CLO",[5]; p = 0.02,fewer seizures than CLO
"COC[C@@H](NC(C)=O)C(=O)NCc1ccccc1 [lancosamide, lacosamide]",outcome,[6],died
C[C@H]1O[C@@H](O[C@H]2[C@@H](O)C[C@H](O[C@H]3[C@@H](O)C[C@H](O[C@H]4CC[C@@]5(C)[C@H](CC[C@@H]6[C@@H]5C[C@@H](O)[C@]5(C)[C@@H](C7=CC(=O)OC7)CC[C@]65O)C4)O[C@@H]3C)O[C@@H]2C)C[C@H](O)[C@@H]1O [digoxin],patients who died in the ICU,[7],16%
COc1cccc(C2(O)CCCCC2CN(C)C)c1 (stereo not drawn) [tramadol],interaction with GABA-A receptors,GABA-A receptors,molecular interaction between tramadol and γ-aminobutyric acid (GABA)-A receptors not related to a competitive mechanism
O=S(=O)([O-])[O-].[Mg+2] [magnesium sulfate],recurrence of eclampsia despite prevention,eclampsia,6%
CCCCc1oc2ccccc2c1C(=O)c1cc(I)c(OCCN(CC)CC)c(I)c1 [amiodarone],OR for recurrences of major arrhythmias with prophylactic AA treatment,[8],0.9 [0.3–3.1]
CO/N=C(\C(=O)N[C@@H]1C(=O)N2C(C(=O)O)=C(CSc3nc(=O)c(=O)[nH]n3C)CS[C@H]12)c1csc(N)n1 [ceftriaxone],rate of PK/PD target non-attainment,[9],62%
piperacillin-tazobactam,rate of empirical target non-attainment,[10],17%
same,resistant rate,[11],87%
same,patients whose microorganisms were sensitive,[12],86%
same,patients with insufficient plasma concentration,[13],77%
colistin,susceptibility,[11]; colistin excepting with Proteus,98%
same,strains susceptible,"Pseudomonas aeruginosa [14]; 485 strains from burned patients, disk diffusion",100%
same,sensitivity,[15],all bacterial stocks were sensitive
same,sensitivity,Acinetobacter baumanni,all bacterial stocks were sensitive
same,sensitivity,P. aeruginosa; Ceftazidim resistant isolates,all bacterial stocks were sensitive
Cn1c(=O)c2c(ncn2C)n(C)c1=O [caffeine],potential caffeine adverse effects between groups or pre and post-caffeine administration,[16],no difference
NCC[C@H](O)C(=O)N[C@@H]1C[C@H](N)[C@@H](O[C@H]2O[C@H](CN)[C@@H](O)[C@H](O)[C@H]2O)[C@H](O)[C@H]1O[C@H]1O[C@H](CO)[C@@H](O)[C@H](N)[C@H]1O [Amikacin],Cmax < 60 mg L^−1 (proportion of patients),[17],39%
same,resistant rate,[11],57%
same,strains resistant,Pseudomonas aeruginosa [14],62%
same,median Cmax,"[18]; median dosage 22.5 mg kg, initial injection, 191 patients",72.1 mg·L
same,patients with Cmax greater than 80 mg l,[18]; of 191 patients,53 patients
same,patients with Cmax less than 64 mg l,[18]; of 191 patients,77 patients
same,patients not attaining target Cmax 60–80 mg L^−1,[19],33%
same,peaks above 64 mg l,[20],70%
same,resistant,Pseudomonas,44%
same,resistant,Acinetobacter baumannii,85%
same,cases reaching a peak between 60 and 80 μg/ml,"mean dose 26 mg kg day, 1 h infusion, 18 burned patients",55%
same,total volume of distribution,range (0.28–1.32),0.55 L·kg
same,half-life time (t1 2),range [1.42–8 h],4.70 h
same,amikacin clearance,[21],6.4 L·h
same,correlation between Cpeak at day 1 and Cpeak at day 5 (r),[21],0.45
same,resistance,Escherichia-coli,without resistance
CSCC[C@H](NC(=O)[C@H](CS)NC(=O)CNC(=O)[C@H](Cc1ccc(O)cc1)NC(=O)[C@H](CCC(=O)O)NC(=O)CNC(=O)[C@H](C)NC(=O)[C@H](CC(=O)O)NC(=O)[C@H](CCC(=O)O)NC(=O)[C@H](CCC(=O)O)NC(=O)[C@H](CCC(N)=O)NC(=O)[C@@H](N)CC(C)C)C(N)=O [MOTREM],product-related adverse events,[22]; 27 healthy male volunteers,No product-related adverse events were reported
same,effective half-life,"[22]; continuous IV infusion, healthy male volunteers",about 3 min
same,safety and tolerability,[22]; up to 5mg/kg 15-min loading dose and 6 mg kg h for 7.75 hours,safe and well tolerated up to the highest dose tested
same,GLP toxicology,[23],safe and well tolerated in GLP toxicology studies
same,clearance,clinical,110 mL/min/kg
same,PK linearity,[24],linear
CC(C)(O/N=C(\C(=O)N[C@@H]1C(=O)N2C(C(=O)[O-])=C(C[n+]3ccccc3)CS[C@H]12)c1csc(N)n1)C(=O)O [ceftazidim],strains resistant,Pseudomonas aeruginosa [14],21%
same,resistance,P. aeruginosa; isolates 2015 and 2016,10%
same,antibiotic resistance of PA,[25]; period 2007–2010 (P1),42%
same,antibiotic resistance of PA,"[25]; period 2011–2014 (P2), after antibiotic stewardship, p < 0.01",11%
same,resistance,Pseudomonas aeruginosa [26],33.3%
